Test results published in patent US20240174637A1, “DEGRADERS OF GRK2 AND USES THEREOF” (Sonata Therapeutics, Inc., priority 2021, published 2024).
Read-outs that look alike come from different tables or passages of the source.

Tests used:
Type in all cases: cell-based
PAXF1657 EV = assay: 7-day cellular proliferation assay (CellTiter-Glo), PAXF1657 EV
Protocol: (§1) In order to identify compounds specific for GRK2, we generated two isogenic cell line pairs of the pancreatic cancer cell line PAXF1657, a pair of cells stably overexpressing GRK2 cDNA or the control empty vector and a cell line pair of PAXF1657 GRK2 knockout clonal cells versus non-targeting control clonal cells.
(§2) Proliferation Assay: Cellular anti-proliferative activity of compounds was assessed by using the pancreatic cancer cell line, PAXF1657, stably overexpressing GRK2 cDNA or the control empty vector, as well as the parental urinary bladder cancer cell line, 5637. In addition, we also took advantage of GRK2 knockout cell lines that were generated via CRISPR. Cell lines were seeded into tissue culture treated, white-walled, 96-well plates at a density of 500 cells/well in RPMI1640 media supplemented with 10% H.I. FBS and penicillin/streptomycin. Plates were incubated overnight at 37° C., 5% CO2 to allow cells to adhere to the wells. GRK2 inhibitors were added to the cells using a 10-point dilution series with a final concentration ranging from 30 μM-0.0002 μM in 0.3% DMSO. At the time of compound addition, a set of plates, that were not treated with compounds, were collected and cell viability was measured using CellTiter-Glo (Promega). CellTiter-Glo reagent was added to the designed plates and luminescence was measuring using a Biotek Synergy plate reader. The compound treated cells were incubated for 3 days at 37° C., 5% CO2. The media was then aspirated from each well and replaced with fresh media containing GRK2 inhibitors. The compound treated cells were then incubated for an additional 4 days at 37° C., 5% CO2. Cell viability was assessed and at end of the 7-day compound treatment by CellTiterGlo.

GRK2 = molecular target: T1, GRK2 (Homo sapiens, UniProt P25098); assay: GRK2 Degradation Assay and Western Blot in PAXF1657 cells; design: endogenous in cells; host or cells: PAXF1657
T1 sequence (P25098 1-689): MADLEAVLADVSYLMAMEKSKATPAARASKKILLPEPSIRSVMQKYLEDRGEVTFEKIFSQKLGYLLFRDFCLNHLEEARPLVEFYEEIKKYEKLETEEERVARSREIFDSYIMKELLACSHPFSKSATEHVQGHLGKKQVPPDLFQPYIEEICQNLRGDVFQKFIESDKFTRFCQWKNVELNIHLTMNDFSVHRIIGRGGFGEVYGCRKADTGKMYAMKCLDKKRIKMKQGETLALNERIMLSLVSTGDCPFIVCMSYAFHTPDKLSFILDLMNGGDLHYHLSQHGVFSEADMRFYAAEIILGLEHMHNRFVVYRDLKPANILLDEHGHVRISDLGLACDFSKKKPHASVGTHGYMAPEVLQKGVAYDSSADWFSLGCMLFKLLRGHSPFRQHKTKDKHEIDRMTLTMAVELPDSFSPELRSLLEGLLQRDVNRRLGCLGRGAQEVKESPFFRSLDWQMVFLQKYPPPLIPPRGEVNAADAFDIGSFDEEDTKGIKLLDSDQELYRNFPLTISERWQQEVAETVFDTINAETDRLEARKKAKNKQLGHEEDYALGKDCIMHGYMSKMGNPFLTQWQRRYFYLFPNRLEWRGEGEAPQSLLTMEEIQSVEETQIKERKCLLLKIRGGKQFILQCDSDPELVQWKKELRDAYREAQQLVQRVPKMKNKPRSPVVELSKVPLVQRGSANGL
Protocol: General Protocol: Degradation Assay and Western Blot. PAXF1657 cells were plated in 6-well, 24-well plates or 60 mm tissue culture treated dishes and incubated at 37° C. until 70% confluency. The media was aspirated, and the cells were treated with fresh media containing the compounds in the concentration range of 0 μM to 10 μM for a period of 6 to 24 hours. At the desired time points the cells were washed twice with cold PBS and lysed with lysis buffer (ice cold PBS+1% NP40 with 1/100 protease/phosphatase inhibitors) on ice for 8 mins followed by sonication at 70% intensity pulses for 10 seconds. The cells were centrifuged at 20000 g for 8 min at 4° C. The supernatants were collected and stored at −80° C.
Samples were mixed with NuPAGE LDS sample buffer and NuPAGE sample reducing buffer (3×), vortexed and heated at 95° C. for 10 min, and then analyzed by SDS-PAGE (NuPAGE 4-12%) followed by transfer to nitrocellulose membrane. […] The membranes were washed three times with TBST and incubated with GRK2 or R-actin antibodies in 5% milk in TBST at 4° C. overnight. The membranes were washed three times with TBST and incubated with anti-mouse IgG-HRP or anti-rabbit IgG-HRP at room temperature for 2 hours in 5% milk in TBST. The membranes were washed three times with TBST and developed with ECL Dura, ECL femto or ECL atto substrates.

PAXF1657 KO Clone #4 = assay: 7-day cellular proliferation assay (CellTiter-Glo), PAXF1657 KO Clone #4
Protocol: as §1, §2

[1] = 168 h, 7-day, read-out: 7-day proliferation assay: IC50 GeoMean (uM) [Cell Line: PAXF1657 EV]
[2] = 1 uM, PAXF1657 EV, 24 hrs, read-out: % GRK2 degradation at 1 uM in PAXF1657 EV (24 hrs)
[3] = 3 uM, PAXF1657 EV, 24 hrs, read-out: % GRK2 degradation at 3 uM in PAXF1657 EV (24 hrs)
[4] = 168 h, 7-day, read-out: 7-day proliferation assay: IC50 GeoMean (uM) [Cell Line: PAXF1657 KO Clone #4]
[5] = proliferation, read-out: GeoMean IC50 (UM) PAXF1657 EV
[6] = Conc 0.3 uM, read-out: Degradation Assay - 3 point: Degradation (%)
[7] = Conc 1 uM, read-out: Degradation Assay - 3 point: Degradation (%)
[8] = Conc 3 uM, read-out: Degradation Assay - 3 point: Degradation (%)
[9] = proliferation, read-out: GeoMean IC50 (uM) PAXF1657 KO Clone #4
[10] = 0.3 uM, PAXF1657 EV, 24 hrs, read-out: % GRK2 degradation at 0.3 uM in PAXF1657 EV (24 hrs)

Row | SMILES | inhibition at 1 µM (GRK2; [2]) | inhibition at 3 µM (GRK2; [3]) | inhibition at 0.3 µM (GRK2; [6]) | inhibition at 1 µM (GRK2; [7]) | inhibition at 3 µM (GRK2; [8]) | inhibition at 0.3 µM (GRK2; [10]) | IC50 (PAXF1657 EV; [1]) | IC50 (PAXF1657 KO Clone #4; [4]) | IC50 (PAXF1657 EV; [5]) | IC50 (PAXF1657 KO Clone #4; [9])
1 | Cn1c(CNc2cccc(C(=O)NCc3cccc(OCCOCCOCCOCCC(=O)Nc4cccc5c4CN(C4CCC(=O)NC4=O)C5=O)c3)c2)nnc1-c1ccncn1 (stereo not drawn) [Compound D107] | 19% | 20% |  |  |  |  | > 10 µM | > 10 µM |  | 
2 | C[C@@H](NC(=O)c1cccc(NCc2nnc(-c3ccncn3)n2C)c1)c1cccc(OCCCCCCCn2cc(CCCC(=O)Nc3cccc4c3CN(C3CCC(=O)NC3=O)C4=O)nn2)c1 (stereo partly drawn) [Compound D158, N-((1R)-1-(3-(7-(4-(4-(2-(2,6-dioxopiperidin-3-yl)-1-oxoisoindolin-4-ylamino)-4-oxobutyl)-1H-1,2,3-triazol-1-yl)heptyloxy)phenyl)ethyl)-3-((4-methyl-5-(pyrimidin-4-yl)-4H-1,2,4-triazol-3-yl)methylamino)benzamide] |  |  | 42.9% | 65.8% | 81.9% |  |  |  | 1.71 µM | > 30 µM
3 | C[C@@H](NC(=O)c1cccc(NCc2nnc(-c3ccncn3)n2C)c1)c1cccc(OCCCCCn2cc(CCCC(=O)Nc3cccc4c3CN(C3CCC(=O)NC3=O)C4=O)nn2)c1 (stereo partly drawn) [Compound D157] |  |  | 13.5% | 11.1% | 42.3% |  |  |  | 7.39 µM | > 30 µM
4 | Cn1c(CNc2cccc(C(=O)N[C@@H]3CCOc4ccc(OCCCCCCOCCOCCOCCCCCC(=O)Nc5cccc6c5CN(C5CCC(=O)NC5=O)C6=O)cc43)c2)nnc1-c1ccncn1 (stereo partly drawn) [Compound D187, N-((4R)-6-(6-(2-(2-(6-(2-(2,6-dioxopiperidin-3-yl)-1-oxoisoindolin-4-ylamino)-6-oxohexyloxy)ethoxy)ethoxy)hexyloxy)chroman-4-yl)-3-((4-methyl-5-(pyrimidin-4-yl)-4H-1,2,4-triazol-3-yl)methylamino)benzamide] |  |  | 11.8% | 23.8% | 63.1% |  |  |  | 2.09 µM | > 30 µM
5 | Cn1c(CNc2cccc(C(=O)NCc3cccc(OCCCCCn4cc(CCCCC(=O)Nc5cccc6c5CN(C5CCC(=O)NC5=O)C6=O)nn4)c3)c2)nnc1-c1ccncn1 (stereo not drawn) [Compound D58] | 41% | 68% |  |  |  | 7% | 1 to 10 µM | > 10 µM |  | 
6 | Cn1c(CNc2cccc(C(=O)N[C@H]3CCOc4ccc(OCCCCCOCCCOCC(=O)Nc5cccc6c5CN(C5CCC(=O)NC5=O)C6=O)cc43)c2)nnc1-c1ccncn1 (stereo partly drawn) [Compound D155, N-((4S)-6-(5-(3-(2-(2-(2,6-dioxopiperidin-3-yl)-1-oxoisoindolin-4-ylamino)-2-oxoethoxy)propoxy)pentyloxy)chroman-4-yl)-3-((4-methyl-5-(pyrimidin-4-yl)-4H-1,2,4-triazol-3-yl)methylamino)benzamide] |  |  | 61.9% | 58.1% | -21.9% |  |  |  | > 30 µM | > 30 µM
7 | Cn1c(CNc2cccc(C(=O)NCc3ccc(OCCCCCOCCCOCC(=O)Nc4cccc5c4CN(C4CCC(=O)NC4=O)C5=O)cc3)c2)nnc1-c1ccncn1 (stereo not drawn) [Compound D167, N-(4-(5-(3-(2-(2-(2,6-dioxopiperidin-3-yl)-1-oxoisoindolin-4-ylamino)-2-oxoethoxy)propoxy)pentyloxy)benzyl)-3-((4-methyl-5-(pyrimidin-4-yl)-4H-1,2,4-triazol-3-yl)methylamino)benzamide] |  |  | 33.3% | 57.4% | 55.2% |  |  |  | 2.44 µM | > 30 µM

Now from value to compound, other results behind:

Row | inhibition at 1 µM (GRK2; [2]) | inhibition at 3 µM (GRK2; [3]) | inhibition at 0.3 µM (GRK2; [6]) | inhibition at 1 µM (GRK2; [7]) | inhibition at 3 µM (GRK2; [8]) | inhibition at 0.3 µM (GRK2; [10]) | SMILES | IC50 (PAXF1657 EV; [1]) | IC50 (PAXF1657 KO Clone #4; [4]) | IC50 (PAXF1657 EV; [5]) | IC50 (PAXF1657 KO Clone #4; [9])
8 |  |  | -8.15% | 2.96% | 11.5% |  | Cn1c(CNc2cccc(C(=O)N[C@H]3CCOc4ccc(OCCCCCCOCCOCCOCCCCCC(=O)Nc5cccc6c5CN(C5CCC(=O)NC5=O)C6=O)cc43)c2)nnc1-c1ccncn1 (stereo partly drawn) [Compound D156, N-((4S)-6-(6-(2-(2-(6-(2-(2,6-dioxopiperidin-3-yl)-1-oxoisoindolin-4-ylamino)-6-oxohexyloxy)ethoxy)ethoxy)hexyloxy)chroman-4-yl)-3-((4-methyl-5-(pyrimidin-4-yl)-4H-1,2,4-triazol-3-yl)methylamino)benzamide] |  |  | 2.15 µM | > 30 µM
9 | 1% | 5% |  |  |  | -3% | Cc1ncsc1-c1ccc(CNC(=O)[C@@H]2C[C@@H](O)CN2C(=O)[C@@H](NC(=O)CCCc2cn(CCCCCOc3cccc(CNC(=O)c4cccc(NCc5nnc(-c6ccncn6)n5C)c4)c3)nn2)C(C)(C)C)cc1 [Compound D81] | > 10 µM | > 10 µM |  | 
10 |  |  | 20% | 36.3% | -32.6% |  | Cc1ncsc1-c1ccc(CNC(=O)[C@@H]2C[C@@H](O)CN2C(=O)C(NC(=O)CCCCCOCCOCCOCCCCCCOc2ccc3c(c2)[C@H](NC(=O)c2cccc(NCc4nnc(-c5ccncn5)n4C)c2)CCO3)C(C)(C)C)cc1 (stereo partly drawn) [Compound D186, (2S,4R)-1-((R)-2-tert-butyl-22-((R)-4-(3-((4-methyl-5-(pyrimidin-4-yl)-4H-1,2,4-triazol-3-yl)methylamino)benzamido)chroman-6-yloxy)-4-oxo-10,13,16-trioxa-3-azadocosane)-4-hydroxy-N-(4-(4-methylthiazol-5-yl)benzyl)pyrrolidine-2-carboxamide] |  |  | 0.56 µM | 5.09 µM
11 |  |  | 0.276% | -12% | -22% |  | Cc1ncsc1-c1ccc(CNC(=O)[C@@H]2C[C@@H](O)CN2C(=O)[C@@H](NC(=O)COCCCOCCCCCOc2ccc(CNC(=O)c3cccc(NCc4nnc(-c5ccncn5)n4C)c3)cc2)C(C)(C)C)cc1 [Compound D168] |  |  | > 1.88 µM | 6.03 µM
